Among the data in BindingDB's records for doi:10.1016/S0960-894X(01)80879-9 (1993) are Ki values, retold here.

Test [1] in a line: Binding affinity for dopamine receptor D2 in guinea pig striatal membrane using radiolabeled ligand [3H]spiperone.
In test [2] the target is Sigma-1 receptor (Cavia porcellus). In words: Binding affinity for sigma receptor in guinea pig brain membrane using radiolabeled ligand [3H]-(+)-SKF- 10,047 was determined.

Structures can show the parent of a compound that is named as a salt.

Turning to `CN1CCC2(CC1)OC(C)(c1ccccc1)CC2=O` (configuration not stated) [2,8-Dimethyl-2-phenyl-1-oxa-8-aza-spiro[4.5]decan-4-one; compound with (E)-but-2-enedioic acid], the Ki (in general, a dissociation constant, usually derived from enzyme kinetics or from competition with a known ligand) in test [1] was determined as 10000 nM; in test [2] it was 214 nM.

Regarding `CCN(CC)CCC1(C)OC=C(c2ccccc2)C1=O` (configuration not stated) [2-(2-Diethylamino-ethyl)-2-methyl-4-phenyl-furan-3-one; hydrochloride], the inhibition constant (Ki) turned out to be 10000 nM in test [1] and 9 nM in test [2].

For the compound `CCN(CC)CCC1(C)OC(c2ccccc2)=CC1=O` (configuration not stated) [2-(2-Diethylamino-ethyl)-2-methyl-5-phenyl-furan-3-one; hydrochloride], the Ki was above 10000 nM in test [1] and 44 nM in test [2].

As to `CN(C)CCC1(c2ccccc2)OC=C(c2ccccc2)C1=O` (configuration not stated) [2-(2-Dimethylamino-ethyl)-2,4-diphenyl-furan-3-one; hydrochloride], the inhibitory constant (Ki) in test [1] amounted to 2690 nM; in test [2], 223 nM.

On to `CCN(CC)CCCC1(C)OC=C(c2ccccc2)C1=O` (configuration not stated) [2-(3-Diethylamino-propyl)-2-methyl-4-phenyl-furan-3-one; hydrochloride], for which the inhibitory constant (Ki) is above 10000 nM in test [1] and 16 nM in test [2].

On to `O=C1C=C(c2ccc(F)cc2)OC12CCN(CCc1ccccc1)CC2` [2-(4-Fluoro-phenyl)-8-phenethyl-1-oxa-8-aza-spiro[4.5]dec-2-en-4-one; hydrochloride], for which the inhibition constant Ki in test [1] was 5320 nM; in test [2] it was 6 nM.

On to `O=C1C=C(c2ccccc2)OC12CCNCC2` [2-Phenyl-1-oxa-8-aza-spiro[4.5]dec-2-en-4-one; hydrochloride], for which the results for the inhibition constant (Ki) in test [1] and in test [2] were above 10000 nM and 462 nM, respectively.

Take `CN1CCC2(CC1)OC=C(c1ccc(F)cc1)C2=O` [3-(4-Fluoro-phenyl)-8-methyl-1-oxa-8-aza-spiro[4.5]dec-2-en-4-one; hydrochloride]: the inhibition constant Ki in test [1] was 2600 nM; in test [2], 4000 nM.

In the case of `O=C1C(c2ccc(F)cc2)=COC12CCN(CCc1ccccc1)CC2` [3-(4-Fluoro-phenyl)-8-phenethyl-1-oxa-8-aza-spiro[4.5]dec-2-en-4-one; hydrochloride], the inhibition constant Ki in test [1] was 217 nM; in test [2] it was 24 nM.

Consider `COc1ccc(C2=COC3(CCN(CCc4ccccc4)CC3)C2=O)cc1` [3-(4-Methoxy-phenyl)-8-phenethyl-1-oxa-8-aza-spiro[4.5]dec-2-en-4-one; hydrochloride], for which the Ki in test [1] was determined as 2070 nM; in test [2], 30 nM.

For the compound `O=C1C(c2ccc3ccccc3c2)=COC12CCN(CCc1ccccc1)CC2` [3-Naphthalen-2-yl-8-phenethyl-1-oxa-8-aza-spiro[4.5]dec-2-en-4-one; hydrochloride], the results for the inhibitory constant (Ki) in test [1] and in test [2] were 3130 nM and 35 nM, respectively.

Consider `O=C1C(c2ccccc2)=COC12CCNCC2` [3-Phenyl-1-oxa-8-aza-spiro[4.5]dec-2-en-4-one; hydrochloride], for which the figures for the inhibition constant Ki in test [1] and in test [2] were 10000 nM and 6220 nM, respectively.

With `O=C1C=C(c2ccccc2)OC12CCCN(Cc1ccccc1)C2` (configuration not stated) [7-Benzyl-2-phenyl-1-oxa-7-aza-spiro[4.5]dec-2-en-4-one; hydrochloride], the inhibitory constant (Ki) in test [1] is above 10000 nM; in test [2] it was 4520 nM.

Take `O=C1C(c2ccccc2)=COC12CCN(Cc1ccccc1)C2` (configuration not stated) [7-Benzyl-3-phenyl-1-oxa-7-aza-spiro[4.4]non-2-en-4-one; hydrochloride]: the inhibition constant (Ki) in test [1] was found to be 20000 nM; in test [2], 32 nM.

As to `O=C1C(c2ccccc2)=COC12CCCN(Cc1ccccc1)C2` (configuration not stated) [7-Benzyl-3-phenyl-1-oxa-7-aza-spiro[4.5]dec-2-en-4-one; hydrochloride], the Ki is above 10000 nM in test [1] and 695 nM in test [2].

On to `O=C(CCCN1CCCC2(C1)OC(c1ccccc1)=CC2=O)c1ccc(F)cc1` (configuration not stated) [7-[4-(4-Fluoro-phenyl)-4-oxo-butyl]-2-phenyl-1-oxa-7-aza-spiro[4.5]dec-2-en-4-one; hydrochloride], for which the inhibition constant Ki in test [1] worked out at 152 nM; in test [2], 384 nM.

Take `O=C1C(c2ccccc2)=COC12CCN(Cc1cccc(Cl)c1)CC2` [8-(3-Chloro-benzyl)-3-phenyl-1-oxa-8-aza-spiro[4.5]dec-2-en-4-one; hydrochloride]: the figures for the Ki in test [1] and in test [2] were 2110 nM and 232 nM, respectively.

As for `Cc1cc(CN2CCC3(CC2)OC=C(c2ccccc2)C3=O)on1` [8-(3-Methyl-isoxazol-5-ylmethyl)-3-phenyl-1-oxa-8-aza-spiro[4.5]dec-2-en-4-one; hydrochloride], the Ki in test [1] was determined as 32000 nM; in test [2], 7500 nM.

Turning to `O=C1C(c2ccccc2)=COC12CCN(Cc1ccc(F)cc1)CC2` [8-(4-Fluoro-benzyl)-3-phenyl-1-oxa-8-aza-spiro[4.5]dec-2-en-4-one; hydrochloride], the figures for the Ki in test [1] and in test [2] were 2420 nM and 3 nM, respectively.

For `C=CCN1CCC2(CC1)OC=C(c1ccccc1)C2=O` [8-Allyl-3-phenyl-1-oxa-8-aza-spiro[4.5]dec-2-en-4-one; hydrochloride], the inhibitory constant (Ki) in test [1] turned out to be 4870 nM; in test [2], 163 nM.

As to `O=C1C=C(c2ccccc2)OC12CCN(Cc1ccccc1)CC2` [8-Benzyl-2-phenyl-1-oxa-8-aza-spiro[4.5]dec-2-en-4-one; hydrochloride], the Ki in test [1] was above 10000 nM; in test [2], 1 nM.

In test [1], `O=C1C(c2ccc(F)cc2)=COC12CCN(Cc1ccccc1)CC2` [8-Benzyl-3-(4-fluoro-phenyl)-1-oxa-8-aza-spiro[4.5]dec-2-en-4-one; hydrochloride] showed an inhibitory constant (Ki) of 1420 nM.

For `O=C1C(c2ccccc2)=COC12CCN(Cc1ccccc1)CC2` [8-Benzyl-3-phenyl-1-oxa-8-aza-spiro[4.5]dec-2-en-4-one; hydrochloride], the figures for the Ki in test [1] and in test [2] were 2370 nM and 4 nM, respectively.

As to `O=C1C(c2ccc(F)cc2)=COC12CCN(CC1CCCCC1)CC2` [8-Cyclohexylmethyl-3-(4-fluoro-phenyl)-1-oxa-8-aza-spiro[4.5]dec-2-en-4-one; hydrochloride], the inhibition constant (Ki) in test [1] was 962 nM; in test [2], 2 nM.

Take `O=C1C(c2ccccc2)=COC12CCN(CC1CCCCC1)CC2` [8-Cyclohexylmethyl-3-phenyl-1-oxa-8-aza-spiro[4.5]dec-2-en-4-one; hydrochloride]: the inhibition constant (Ki) in test [1] was determined as 642 nM; in test [2] it was 1 nM.

As for `CN1CCC2(CC1)OC(c1ccccc1)=CC2=O` [8-Methyl-2-phenyl-1-oxa-8-aza-spiro[4.5]dec-2-en-4-one; hydrochloride], the Ki in test [1] was 2900 nM; in test [2], 298 nM.

Take `CN1CCC2(CC1)OC=C(c1ccccc1)C2=O` [8-Methyl-3-phenyl-1-oxa-8-aza-spiro[4.5]dec-2-en-4-one; hydrochloride]: the figures for the inhibition constant Ki in test [1] and in test [2] were above 10000 nM and 580 nM, respectively.

Regarding `O=C1C=C(c2ccccc2)OC12CCN(CCc1ccccc1)CC2` [8-Phenethyl-2-phenyl-1-oxa-8-aza-spiro[4.5]dec-2-en-4-one; hydrochloride], the results for the inhibition constant Ki in test [1] and in test [2] were 7180 nM and 1 nM, respectively.

Take `O=C(CCCN1CCC2(CC1)OC=C(c1ccccc1)C2=O)c1ccc(F)cc1` [8-[4-(4-Fluoro-phenyl)-4-oxo-butyl]-3-phenyl-1-oxa-8-aza-spiro[4.5]dec-2-en-4-one; hydrochloride]: the Ki in test [1] was 70 nM; in test [2], 17 nM.
